In patent US8030346B2, “Heterocyclic quinolone derivatives that inhibit prolyl hydroxylase activity” (Amgen Inc., priority 2007, dated 2011):

Legend:
HIF PHD2 = HIF PHD2 (Homo sapiens, UniProt Q9GZT9); assay: PHD2 inhibition assay (TR-FRET, VCB-Eu detection of hydroxylated P564-HIF1α peptide); assay type: biochemical; conditions: Table of PHD2 IC50 values of Example Compounds
Protocol: Inhibition of HIF PHD2 activity was quantified utilizing the TR-FRET technology. HIF PHD2 catalyzes a hydroxyl modification on the proline residue of the P564-HIF1α peptide substrate (Biotin-[…] (SEQ ID NO: 7)) resulting in recognition and binding of the europylated Von Hippel-Lindau protein (pVHL), elongin B and elongin C heterotrimeric (VCB-Eu) complex.
The PHD2 inhibition assay was executed by addition of freshly dissolved FeCl2 to 178.57 μM (100 μM final concentration) in PHD2 Reaction Buffer containing 30 mM MES, pH 6, 10 mM NaCl, 0.25% Brij-35, 0.01% BSA, and 1% DMSO. 28 μL of the iron solution and 2 μL of inhibitor compounds serially diluted in 100% DMSO (5% DMSO final) were added to black polypropylene 96-well microtiter plates. To that, 10 μL of 10 nM PHD2 (2 nM final) was added to all wells of the plate except for the 8 wells of column 12 (LO control), and allowed to incubate at room temperature on the shaker for one hour. Column 6 was the HI control containing PHD2 enzyme and 5% DMSO vehicle, but no inhibitor compound. To initiate the PHD2 enzymatic reaction, 10 μL of a solution containing 500 nM P564-HIF1α peptide (100 nM final), 10 mM ascorbic acid (2 mM final), and 1.25 μM 2-oxoglutarate (α-ketoglutarate; 0.25 μM final) in PHD2 Reaction Buffer was added to all wells of the plate and allowed to incubate on the shaker at room temperature for one hour.
The reaction was terminated by addition of 25 μL TR-FRET Buffer (50 mM TRIS-HCl, pH 9, 100 mM NaCl, 0.05% BSA, and 0.5% Tween-20) containing 150 mM succinate (product inhibitor; 50 mM final), 75 nM streptavidin-APC (25 nM final), and 7.5 nM VCB-Eu (2.5 nM final). The TR-FRET detection reagents were placed on a shaker for 1 hour to reach binding equilibrium before reading on the Discovery platform (PerkinElmer). Europium is excited at 315 nm and phosphoresces at 615 nm with a large Stoke's shift. APC, in turn, emits at 655 nm upon excitation at 615 nm. The TR-FRET signal is measured as the ratio of the APC 655 nm signal divided by the internal europium reference 615 nm emission signal.
The POC (percentage of control) was determined by comparing the signal from hydroxylated peptide substrate in the enzyme reaction containing inhibitor compound with that from PHD2 enzyme with DMSO vehicle alone (HI control), and no enzyme (LO control). POC was calculated using the formula: % control (POC)=(cpd−average LO)/(average HI−average LO)*100. Data (consisting of POC and inhibitor concentration in […]) was fitted to a 4-parameter equation (y=A+((B−A)/(1+((x/C)^D))), where A is the minimum y (POC) value, B is the maximum y (POC), C is the x (cpd concentration) at the point of inflection and D is the slope factor) using a Levenburg-Marquardt non-linear regression algorithm.

[1] = molecular target: T1, Collagen Prolyl Hydroxylase II (CPH2) (Homo sapiens, UniProt O15460); assay: Collagen prolyl hydroxylase II activity by radiometric HPLC measurement of 2-oxoglutarate conversion to succinic acid; assay type: biochemical
T1 construct: made in house; host or cells: Trichoplusia ni insect cells (baculovirus, pFastBac1)
T1 sequence (O15460 22-533 isoform O15460-2 limits assumed): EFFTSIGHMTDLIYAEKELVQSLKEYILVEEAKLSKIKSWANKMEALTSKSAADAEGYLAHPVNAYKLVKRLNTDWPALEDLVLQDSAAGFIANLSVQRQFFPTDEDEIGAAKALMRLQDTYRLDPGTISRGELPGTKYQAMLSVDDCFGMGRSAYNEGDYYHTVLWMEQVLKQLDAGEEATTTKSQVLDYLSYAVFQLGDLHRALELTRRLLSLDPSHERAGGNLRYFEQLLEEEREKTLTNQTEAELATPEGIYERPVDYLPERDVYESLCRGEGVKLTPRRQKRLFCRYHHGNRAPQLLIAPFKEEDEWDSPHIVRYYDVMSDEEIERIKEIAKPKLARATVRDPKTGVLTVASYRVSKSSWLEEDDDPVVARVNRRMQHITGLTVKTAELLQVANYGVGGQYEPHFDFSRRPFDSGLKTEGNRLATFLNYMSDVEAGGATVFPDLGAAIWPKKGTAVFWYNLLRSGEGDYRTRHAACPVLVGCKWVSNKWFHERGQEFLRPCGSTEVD
T1 sequence (P07237 18-508 partner): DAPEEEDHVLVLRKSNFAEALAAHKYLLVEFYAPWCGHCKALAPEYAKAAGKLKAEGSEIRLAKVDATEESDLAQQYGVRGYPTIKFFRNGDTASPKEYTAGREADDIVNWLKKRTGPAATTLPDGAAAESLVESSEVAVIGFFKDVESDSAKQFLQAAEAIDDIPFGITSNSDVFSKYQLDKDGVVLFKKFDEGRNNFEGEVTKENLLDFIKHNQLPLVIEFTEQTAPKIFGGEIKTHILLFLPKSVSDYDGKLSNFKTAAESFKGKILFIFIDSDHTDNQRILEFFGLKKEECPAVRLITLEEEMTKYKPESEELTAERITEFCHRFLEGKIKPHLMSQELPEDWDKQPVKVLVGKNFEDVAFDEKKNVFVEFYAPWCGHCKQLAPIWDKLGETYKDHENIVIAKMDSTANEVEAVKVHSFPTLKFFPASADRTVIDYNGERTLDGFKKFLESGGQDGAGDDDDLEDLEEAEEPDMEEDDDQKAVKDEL
Protocol: Assay Buffer consisted of Tris-HCl, pH 7.5, 0.2 mM DTT, and 0.5 mg/ml catalase. PPG10 peptide was dissolved in 0.25% acetic acid and denatured by boiling for 5 minutes then placed on ice for 5 minutes. The denatured PPG10 was then pre-mixed with 1 M ascorbate, prepared in water, and the mixture diluted with Assay Buffer to yield a working solution of 5× peptide and ascorbate. FeSO4 was freshly dissolved in water and diluted to a 2.8× concentration in Assay Buffer. Enzyme stocks were diluted to a 5× concentration in Assay Buffer. Example compounds plus FeSO4 solution were mixed, followed by addition of 5× enzyme solutions. After 10 minutes gentle mixing at room temperature, the 5× peptide solution was added. […] Final concentrations in the assay were: 50 mM Tris-HCl, pH 7.5, 0.2 mM DTT, 0.5 mg/mL catalase, 10 μM FeSO4, 100 μM PPG10, 50 μM 5-[^14C]-2-oxoglutarate (23-37 cpm/pmol), 1 mM ascorbate, and 4% DMSO. Reactions were gently mixed at room temperature for 1 hour and terminated by addition of an equal volume of 0.02 N H2SO4.
A portion of each terminated reaction was auto-injected into a Polypore H column (PerkinElmer, Waltham, Mass.) at a rate of 0.3 mL/min with 0.01 NH2SO4 as the mobile phase. The HPLC method employed exploits the difference in pKa of the 2-OG and SA carboxylates to chromatographically separate substrate from product at low pH on ion-exchange resin, as described by Cunliffe, et al (Biochem J., 240, 617-619 (1986)) and Kaule and Gunzler (Anal. Biochem., 184, 291-297 (1990)). An Agilent 1100 HPLC System with dual quaternary pumps, column switching valve, and dual columns was used to resolve product from substrate. The Agilent 1100 Multiple Wavelength Detector indicated UV absorption of the substrate and product peaks at 210 nm and a Beta-RAM Model 2 radiation detector with In-Flow 2:1 scintillation cocktail (IN/US Systems Inc.) enabled quantitation of the 2 radioactive peaks. Laura Lite software (IN/US, Tampa, Fla.) was used to collect and analyze radiometric data. […] To standardize across studies, 2-OG conversion was normalized to percent of control (POC) values using reactions that lacked enzyme or inhibitor as low and high controls, respectively. POC data was fitted to the 4-parameter logistic model (A+((B−A)/(1+((x/C)^D)))) using ActivityBase (IDBS, Alameda Calif.) where A is the minimum POC value, B is the maximum POC value, D is the slope factor, and C is compound concentration at the inflection point (IC50, micromolar).

HIF PHD2, sequence (Q9GZT9 whole entry): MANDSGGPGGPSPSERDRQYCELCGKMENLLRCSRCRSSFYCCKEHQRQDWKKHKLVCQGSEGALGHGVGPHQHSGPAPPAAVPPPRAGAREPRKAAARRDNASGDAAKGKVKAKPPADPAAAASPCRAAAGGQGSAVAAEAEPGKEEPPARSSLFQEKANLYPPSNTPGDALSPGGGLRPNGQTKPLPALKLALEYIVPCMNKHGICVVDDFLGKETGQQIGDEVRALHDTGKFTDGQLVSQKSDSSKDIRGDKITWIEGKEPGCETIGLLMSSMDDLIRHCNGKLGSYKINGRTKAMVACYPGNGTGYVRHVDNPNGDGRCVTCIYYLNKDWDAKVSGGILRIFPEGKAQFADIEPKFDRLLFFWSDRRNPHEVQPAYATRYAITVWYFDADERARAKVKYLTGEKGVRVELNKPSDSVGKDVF

SMILES	IC50 (HIF PHD2) [nM]	IC50 [1] [nM]
Cc1csc2c(O)c(C(=O)NCC(=O)O)c(=O)n(C)c12 [Example 4, 2-(7-hydroxy-3,4-dimethyl-5-oxo-4,5-dihydrothieno[3,2-b]pyridine-6-carboxamido)acetic acid]	24	–
Cn1c(=O)c(C(=O)NCC(=O)O)c(O)c2sc(-c3ccc(Cl)cc3)cc21 [Example 5, 2-(2-(4-chlorophenyl)-7-hydroxy-4-methyl-5-oxo-4,5-dihydrothieno[3,2-b]pyridine-6-carboxamido)acetic acid]	97	–
Cn1c(=O)c(C(=O)CCC(=O)O)c(O)c2sc(Br)cc21 [Example 17, 4-(2-bromo-7-hydroxy-4-methyl-5-oxo-4,5-dihydrothieno[3,2-b]pyridin-6-yl)-4-oxobutanoic acid]	64	3780
Cn1c(=O)c(C(=O)NCC(=O)O)c(O)c2sc(Br)cc21 [Example 6, 2-(2-bromo-7-hydroxy-4-methyl-5-oxo-4,5-dihydrothieno[3,2-b]pyridine-6-carboxamido)acetic acid]	7.3	30
Cc1c(Br)sc2c(O)c(C(=O)NCC(=O)O)c(=O)n(C)c12 [Example 16, 2-(2-bromo-7-hydroxy-3,4-dimethyl-5-oxo-4,5-dihydrothieno[3,2-b]pyridine-6-carboxamido)acetic acid]	20	–
Cc1ccsc1-c1cc2c(s1)c(O)c(C(=O)NCC(=O)O)c(=O)n2C [Example 14, 2-(7-hydroxy-4-methyl-2-(3-methylthiophen-2-yl)-5-oxo-4,5-dihydrothieno[3,2-b]pyridine-6-carboxamido)acetic acid]	78	–
Cc1csc2c(O)c(C(=O)N[C@@H](C)C(=O)O)c(=O)n(C)c12 [Example 7, (S)-2-(7-hydroxy-3,4-dimethyl-5-oxo-4,5-dihydrothieno[3,2-b]pyridine-6-carboxamido)propanoic acid]	122	–
C[C@H](NC(=O)c1c(O)c2sc3ccccc3c2n(C)c1=O)C(=O)O [Example 10, N-((4-hydroxy-1-methyl-2-oxo-1,2-dihydro[1]benzothieno[3,2-b]pyridin-3-yl)carbonyl)-L-alanine]	109	–
Cn1c(=O)c(C(=O)NCC(=O)O)c(O)c2sc(-c3ccc(F)cc3)cc21 [Example 11, 2-(2-(4-fluorophenyl)-7-hydroxy-4-methyl-5-oxo-4,5-dihydrothieno[3,2-b]pyridine-6-carboxamido)acetic acid]	15	–
Cn1c(=O)c(C(=O)CCC(=O)O)c(O)c2sccc21 [Example 18, 4-(7-hydroxy-4-methyl-5-oxo-4,5-dihydrothieno[3,2-b]pyridin-6-yl)-4-oxobutanoic acid]	3	34300
Cn1c(=O)c(C(=O)NCC(=O)O)c(O)c2sc3ccccc3c21 [Example 9, N-((4-hydroxy-1-methyl-2-oxo-1,2-dihydro[1]benzothieno[3,2-b]pyridin-3-yl)carbonyl)glycine]	15	–
Cc1nc2c(s1)c(O)c(C(=O)NCC(=O)O)c(=O)n2C [Example 2, N-((7-hydroxy-2,4-dimethyl-5-oxo-4,5-dihydro[1,3]thiazolo[4,5-b]pyridin-6-yl)carbonyl)glycine]	20	–
Cn1c(=O)c(C(=O)NCC(=O)O)c(O)c2sc(-c3ccccc3)cc21 [Example 15, 2-(7-hydroxy-4-methyl-5-oxo-2-phenyl-4,5-dihydrothieno[3,2-b]pyridine-6-carboxamido)acetic acid]	21	–
Cn1c(=O)c(C(=O)NCC(=O)O)c(O)c2sc(-c3cncnc3)cc21 [Example 12, 2-(7-hydroxy-4-methyl-5-oxo-2-(pyrimidin-5-yl)-4,5-dihydrothieno[3,2-b]pyridine-6-carboxamido)acetic acid]	8.3	–
Cc1ncccc1-c1cc2c(s1)c(O)c(C(=O)NCC(=O)O)c(=O)n2C [Example 13, 2-(7-hydroxy-4-methyl-2-(2-methylpyridin-3-yl)-5-oxo-4,5-dihydrothieno[3,2-b]pyridine-6-carboxamido)acetic acid]	16	–
Cn1c(=O)c(C(=O)NCC(=O)O)c(O)c2sccc21 [Example 3, 2-(7-hydroxy-4-methyl-5-oxo-4,5-dihydrothieno[3,2-b]pyridine-6-carboxamido)acetic acid]	75	345
Cn1c(=O)c(C(=O)NCC(=O)O)c(O)c2sc(C(F)(F)F)c(-c3ccccc3)c21 [Example 8, 2-(7-hydroxy-4-methyl-5-oxo-3-phenyl-2-(trifluoromethyl)-4,5-dihydrothieno[3,2-b]pyridine-6-carboxamido)acetic acid]	18	–
Cn1c(=O)c(C(=O)NCC(=O)O)c(O)c2sc(-c3ccc(Cl)cc3)nc21 [Example 1, N-((2-(4-chlorophenyl)-7-hydroxy-4-methyl-5-oxo-4,5-dihydro[1,3]thiazolo[4,5-b]pyridin-6-yl)carbonyl)glycine]	47	–
